{"source": "patent US11767313B2", "about": "“Compounds as nuclear transport modulators and uses thereof” (XWPHARMA LTD., priority 2018, dated 2023)", "key": {"U251": {"test_system": "U251", "assay": "CellTiter-Glo cell proliferation assay, U251", "assay_type": "cell-based", "conditions": "Homo sapiens, U-251", "method": "(§1) CellTiter-Glo® Luminescent Cell Viability assay (with Promega CellTiter 96® Luminescent CellTiter-Glo® kit) was used to study the proliferation inhibition by test compounds. Compounds were resuspended in DMSO to make a 25 mM stock suspension. Cells of cancer cell lines or normal tissues were seeded in 96-well plates at 1,500 to 5,000 cells/well overnight. Compounds were 2- or 3-fold diluted serially to obtain 10 concentrations. Then, the drugs were added to the cell wells by Bravo (Agilent) and incubated for 72 hours. The cells were lysed by adding CellTiter-Glo® Reagent (per manufacturer's instructions) and subsequently, the luminescence was read using EnVision® (PerkinElmer).\n(§2) The percent of growth was calculated as follows. DMSO-treated cells were employed as vehicle control (High control, HC) and culture medium alone was employed as background (Low control, EC). % growth=100×(Lum sample−Lum EC)/(Lum HC−Lum EC). The ICso was calculated by concentration-response curve fitting using Graphpad Prism.\n(§3) Hematological cancer cell lines tested included OCI-AML3, MV-4-11, KG-1, Kasumi-1, K562, THP-1; solid cancer cell lines tested included U87MG, U251, T98G, LN229, A172, H460, H2009, A549; normal cell lines tested included HCN2 and 3T3-L1. […] However, they were not toxic to in vitro cultured normal cells."}, "T98G": {"test_system": "T98G", "assay": "CellTiter-Glo cell proliferation assay, T98G", "assay_type": "cell-based", "conditions": "Homo sapiens, T98G", "method": "as §1, §2, §3"}, "Ratio of brain to plasma": {"assay": "Ratio of brain to plasma", "assay_type": "in vivo", "conditions": "rats, 10 mg/kg PO", "method": "(§4) Following collection, brain tissue was rinsed with cold saline, dried on filter paper, weighed and snap-frozen by placing on dry ice. All samples were stored frozen at approximately −80° C. until analysis. At the time of analysis, brain tissue was homogenized (homogenizing solution PBS, pH 7.4), mixed with internal standard in acetonitrile, vortexed, centrifuged, and supernatant was injected for analysis. Concentration of compounds in plasma was determined using LC-MS-MS instrumentation (API 4000, Triple Quadrupole LC/MS/MS Mass Spectrometer). Plasma samples were treated with the identical method (except homogenization step) and the concentration of compound in each matrix was calculated based on generated standard curves."}, "[1]": {"assay": "Pharmacokinetic profile summary", "assay_type": "in vivo, mice or rats", "method": "(§5) Blood was collected from mice (n=3, or 5) to contribute to the total of 10 time points (pre-dose, 5 min, 15 min, 30 min, 1 hour, 2 hours, 4 hours, 8 hours, 12 hours and 24 hours). At the designated time points, animals were anaesthetized under isoflurane, and approximately 110 μL of blood per time point was collected via retro-orbital puncture into pre-cooled K2EDTA tubes. Blood samples were put on wet ice and centrifuged (2000 g, 5 min at 4° C.) to obtain plasma within 30 minutes of sample collection. All samples were stored frozen at approximately −80° C. until analysis. Prior to analysis, samples were mixed with internal standard in acetonitrile, vortexed, centrifuged, and supernatant was injected for analysis. Concentration of compounds in plasma was determined using LC-MS-MS instrumentation (API 4000, Triple Quadrupole LC/MS/MS Mass Spectrometer). AUC values were calculated using Phoenix Win Nonlin 6.3 software package, PO-Noncompartmental model 200 (extravascular input).\nas §4\nThe pharmacokinetic profile of test compounds in mice or rats was determined from several test compounds was determined using the methods described in Example 22."}, "XPO1": {"molecular_target": "XPO1 (Homo sapiens, UniProt O14980)", "sequence (O14980 whole entry)": "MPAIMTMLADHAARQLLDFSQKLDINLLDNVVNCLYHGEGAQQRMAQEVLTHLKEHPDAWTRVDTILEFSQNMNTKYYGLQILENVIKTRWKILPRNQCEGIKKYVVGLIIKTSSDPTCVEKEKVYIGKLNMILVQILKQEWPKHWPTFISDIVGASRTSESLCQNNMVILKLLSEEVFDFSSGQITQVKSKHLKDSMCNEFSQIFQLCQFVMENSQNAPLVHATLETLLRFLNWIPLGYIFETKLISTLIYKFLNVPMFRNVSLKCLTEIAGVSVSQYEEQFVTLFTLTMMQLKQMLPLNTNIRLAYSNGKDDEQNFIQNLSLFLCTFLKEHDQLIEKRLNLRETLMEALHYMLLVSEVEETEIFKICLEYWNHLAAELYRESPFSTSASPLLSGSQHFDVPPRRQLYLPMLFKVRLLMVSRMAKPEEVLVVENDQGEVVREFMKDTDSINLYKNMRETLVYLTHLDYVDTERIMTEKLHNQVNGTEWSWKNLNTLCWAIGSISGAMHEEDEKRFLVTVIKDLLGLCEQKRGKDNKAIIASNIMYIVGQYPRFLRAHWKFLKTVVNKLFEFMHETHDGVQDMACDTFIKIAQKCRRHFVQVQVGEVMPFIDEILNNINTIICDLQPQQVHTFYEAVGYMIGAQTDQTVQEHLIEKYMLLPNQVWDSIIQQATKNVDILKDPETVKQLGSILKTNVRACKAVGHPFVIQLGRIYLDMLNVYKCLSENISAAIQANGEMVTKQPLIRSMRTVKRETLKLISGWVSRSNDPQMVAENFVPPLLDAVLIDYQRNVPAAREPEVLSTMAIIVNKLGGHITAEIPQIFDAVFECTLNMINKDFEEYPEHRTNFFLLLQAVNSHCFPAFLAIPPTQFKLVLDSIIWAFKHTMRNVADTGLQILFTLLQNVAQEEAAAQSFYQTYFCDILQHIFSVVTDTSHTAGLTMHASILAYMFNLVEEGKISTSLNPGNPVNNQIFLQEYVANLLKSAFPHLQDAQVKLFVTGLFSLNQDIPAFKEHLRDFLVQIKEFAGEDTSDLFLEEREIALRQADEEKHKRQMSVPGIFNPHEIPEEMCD", "assay": "REV-GFP translocation assay in U2OS cells", "assay_type": "cell-based", "set-up": "endogenous in cells; host or cells: U2OS cells stably expressing REV-GFP (clones from HD Biosciences)", "conditions": "for IC50: Table 10", "method": "LTD in China, and cells were cultured with growth medium. […] The highest Leptomycin B (LMB) concentration was set to 50 nM and serially diluted as the positive control, while the highest concentrations of other compounds were set to 10 μM. The cells treated with various drugs or DMSO, were incubated at 37° C. and 5% CO2 for 1 h. Then, cells were fixed with 4% formaldehyde for 15 min at room temperature. The cells were washed and stained with 100 μL Hoechst 33342 working solution for 10 min at room temperature in dark, after which the cell fluorescence was imaged with the High-Content Imaging System, ImageXpress® (Molecular Devices) using the 20× objective. The filters were set for Hoechst (350/461 nm) and GFP/FITC (488/509 nm) (wavelength for excitation and emission maxima). The % effect of REV nuclear translocation was calculated with the following formula: % effect=([…]- signals from testing compounds; ILMB-signals of 50 nM LMB group; ICTRL-signals of vehicle control group."}, "[2]": {"assay": "Pharmacokinetic profile in plasma", "assay_type": "in vivo", "conditions": "mouse, iv, I. V., mice"}, "[3]": {"assay": "Pharmacokinetic profile in plasma", "assay_type": "in vivo", "conditions": "P.O., mice", "method": "as §5"}, "LN-229": {"test_system": "LN-229", "assay": "CellTiter-Glo cell proliferation assay, LN-229", "assay_type": "cell-based", "conditions": "Homo sapiens, LN-229", "method": "as §1, §2, §3"}, "U87MG": {"test_system": "U87MG", "assay": "CellTiter-Glo cell proliferation assay, U87MG", "assay_type": "cell-based, human", "conditions": "Homo sapiens, U-87 MG", "method": "as §1, §2, §3"}, "HCN2": {"test_system": "HCN2", "assay": "CellTiter-Glo cell proliferation assay, HCN2 (normal brain)", "assay_type": "cell-based", "method": "as §1, §2, §3"}, "[4]": {"conditions": "72 hours, Table 1, read-out: Growth inhibition (IC50)"}}, "note": "Where two headings read alike, the source gives them in different places."}
{"compound": "O=C(/C=C\\n1cnc(-c2cc(C(F)(F)F)cc(S(F)(F)(F)(F)F)c2)n1)NNc1ccccn1", "note": "[Compound II, (Z)-3-(3-(3-(Pentafluorosulfanyl)-5-(trifluoromethyl)phenyl)-1H-1,2,4-triazol-1-yl)-N′-(pyridin-2-yl)acrylohydrazide]", "values": [{"measurement": "IC50", "setting": "U251; Table 11, read-out: Absolute IC50 (μM) U251", "result": 2.3, "unit": "µM"}, {"measurement": "IC50", "setting": "U251; U251, 72 hours, Table 1, read-out: Growth inhibition (IC50)", "result": 2.34, "unit": "µM"}, {"measurement": "IC50", "setting": "T98G; Table 11, read-out: Absolute IC50 (μM) T98G", "result": 1.9, "unit": "µM"}, {"measurement": "IC50", "setting": "T98G; [4]", "result": 1.92, "unit": "µM"}, {"measurement": "Kp at 0.25 h", "setting": "Ratio of brain to plasma; rat, brain/plasma, 0.25 h", "result": 0.716}, {"measurement": "Kp at 1 h", "setting": "Ratio of brain to plasma; rat, brain/plasma, 1 h", "result": 0.954}, {"measurement": "Kp at 8 h", "setting": "Ratio of brain to plasma; rat, brain/plasma, 8 h", "result": 1.4}, {"measurement": "brain concentration (second number of pair)", "setting": "Ratio of brain to plasma; 0.25 h", "result": 301, "unit": "ng/g"}, {"measurement": "plasma concentration (first number of pair)", "setting": "Ratio of brain to plasma; 0.25 h", "result": 419, "unit": "ng/g"}, {"measurement": "brain concentration (second number of pair)", "setting": "Ratio of brain to plasma; 1 h", "result": 1191, "unit": "ng/g"}, {"measurement": "plasma concentration (first number of pair)", "setting": "Ratio of brain to plasma; 1 h", "result": 1274, "unit": "ng/g"}, {"measurement": "brain concentration (second number of pair)", "setting": "Ratio of brain to plasma; 8 h", "result": 937, "unit": "ng/g"}, {"measurement": "plasma concentration (first number of pair)", "setting": "Ratio of brain to plasma; 8 h", "result": 677, "unit": "ng/g"}, {"measurement": "Kp", "setting": "[1]; mouse, brain/plasma, 5 mpk/mice/AUC Ratio, read-out: B/P ratio", "result": 1.58}, {"measurement": "Cmax", "setting": "[1]; mouse, po, 5 mg/kg, 5 mpk/mice, first number of Plasma/brain pair, read-out: Cmax/(ng/mL) Plasma", "result": 1040, "unit": "ng/mL"}, {"measurement": "Cmax", "setting": "[1]; mouse, po, 5 mg/kg, 5 mpk/mice, second number of Plasma/brain pair, read-out: Cmax/(ng/mL) brain", "result": 1770, "unit": "ng/mL"}, {"measurement": "AUC", "setting": "[1]; plasma, po, 10 mg/kg, 10 mpk", "result": 4150, "unit": "ng·h/mL"}, {"measurement": "half-life", "setting": "[1]; plasma, mice or rats", "result": 6.9, "unit": "h"}, {"measurement": "Cmax", "setting": "[1]; po, 10 mg/kg, plasma, 10 mpk, read-out: Cmax (ng/ml) plasma/10 mpk", "result": 796, "unit": "ng/mL"}, {"measurement": "EC50", "setting": "XPO1; REV-EGFP U2OS cells, 1 h, Table 2, read-out: Rev-GFP/EC50", "result": 0.0285, "unit": "µM"}, {"measurement": "IC50", "setting": "XPO1; first (or only) value of the cell", "result": 35.2, "unit": "nM"}, {"measurement": "IC50", "setting": "XPO1; second value of the cell", "result": 21.8, "unit": "nM"}, {"measurement": "EC50", "setting": "XPO1; Table 13, read-out: Rev-GFP assay/μM", "result": 0.035, "unit": "µM"}, {"measurement": "AUC(0-t)", "setting": "[2]", "result": 1620, "unit": "ng·h/mL"}, {"measurement": "C0", "setting": "[2]", "result": 558, "unit": "ng/mL"}, {"measurement": "clearance", "setting": "[2]", "result": 10, "unit": "mL/min/kg"}, {"measurement": "half-life", "setting": "[2]", "result": 3.82, "unit": "h"}, {"measurement": "MRT last", "setting": "[2]; read-out: MRT0-last", "result": 4.76, "unit": "h"}, {"measurement": "Vd", "setting": "[2]; read-out: Vdss", "result": 3.2, "unit": "L/kg"}, {"measurement": "AUG0-inf", "setting": "[3]", "result": 13905, "unit": "ng·h/mL"}, {"measurement": "Cmax", "setting": "[3]; mouse, po", "result": 1600, "unit": "ng/mL"}, {"measurement": "Tmax", "setting": "[3]; mouse, po", "result": 2, "unit": "h"}, {"measurement": "half-life", "setting": "[3]; mouse, po", "result": 4.72, "unit": "h"}, {"measurement": "MRT inf", "setting": "[3]; mouse, po, read-out: MRT0-inf", "result": 7.84, "unit": "h"}, {"measurement": "MRT last", "setting": "[3]; mouse, po, read-out: MRT0-last", "result": 6.9, "unit": "h"}, {"measurement": "IC50", "setting": "LN-229; Table 11, read-out: Absolute IC50 (μM) LN-229", "result": 0.8, "unit": "µM"}, {"measurement": "IC50", "setting": "LN-229; [4]", "result": 0.805, "unit": "µM"}, {"measurement": "IC50", "setting": "U87MG; 72 h, U87MG, 72 hours, Table 1, read-out: Growth inhibition (IC50)", "result": 630, "unit": "nM"}, {"measurement": "IC50", "setting": "U87MG; Table 9, first value column, read-out: U87MG IC50", "result": 537, "unit": "nM"}, {"measurement": "IC50", "setting": "U87MG; Table 9, second value column, read-out: U87MG IC50", "result": 723, "unit": "nM"}, {"measurement": "IC50", "setting": "HCN2; 72 h, HCN2 normal cell line, 72 hours, Table 1, read-out: Growth inhibition (IC50)", "result": 44700, "unit": "nM"}, {"measurement": "IC50", "setting": "HCN2; Table 9, read-out: HCN2 IC50", "result": 44700, "unit": "nM"}]}
